From paper PMC9204419, “A Toolbox for the Generation of Chemical Probes for Baculovirus IAP Repeat Containing Proteins” (Frontiers in Cell and Developmental Biology, 2022)
“Also recorded” adds a separate entry of the source. Where two headings read alike, the source gives them in different places.

How the values were obtained:
BIRC7 BIR = target: T1, BIRC7 BIR (Homo sapiens, UniProt Q96CA5); assay: NanoBRET cellular target engagement, single domain BIRC7 BIR
T1 sequence (Q96CA5 70-176): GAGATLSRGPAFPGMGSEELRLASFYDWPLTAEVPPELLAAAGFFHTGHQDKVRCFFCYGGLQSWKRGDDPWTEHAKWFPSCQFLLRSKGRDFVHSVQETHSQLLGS
Protocol: (§1) In brief: Constructs contained the cDNA of full-length or single domains cloned in frame with an N-terminal NanoLuc-fusion as specified in Supplementary Table S2. Plasmids were transfected into HEK293T cells using FuGENE HD (Promega, E2312) and proteins were allowed to express for 20 h. […] The corresponding transfected cells were added and reseeded at a density of 2.5^5 cells/mL after trypsinization and resuspending in Opti-MEM without phenol red (Life Technologies). […] Competitive displacement data were then graphed using GraphPad Prism 9.3 software using a normalized 3-parameter curve fit with the following equation: Y = 100/(1 + 10^(X-LogIC50)).

BIRC7 = target: T2, BIRC7 (Homo sapiens, UniProt Q96CA5); assay: NanoBRET cellular target engagement, full-length BIRC7
T2 sequence (Q96CA5 1-298): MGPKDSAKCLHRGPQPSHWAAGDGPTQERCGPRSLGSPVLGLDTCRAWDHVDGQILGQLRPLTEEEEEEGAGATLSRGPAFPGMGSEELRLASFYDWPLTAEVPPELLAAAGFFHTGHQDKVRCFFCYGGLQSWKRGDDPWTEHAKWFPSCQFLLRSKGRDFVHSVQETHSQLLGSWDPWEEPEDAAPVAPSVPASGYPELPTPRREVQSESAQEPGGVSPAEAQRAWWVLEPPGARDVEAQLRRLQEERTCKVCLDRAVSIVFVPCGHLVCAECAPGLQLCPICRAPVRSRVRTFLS

BIRC1 BIR[2] = target: T3, BIRC1 BIR[2] (Homo sapiens, UniProt Q13075); assay: NanoBRET cellular target engagement, single domain BIRC1 BIR[2]
T3 sequence (Q13075 139-251): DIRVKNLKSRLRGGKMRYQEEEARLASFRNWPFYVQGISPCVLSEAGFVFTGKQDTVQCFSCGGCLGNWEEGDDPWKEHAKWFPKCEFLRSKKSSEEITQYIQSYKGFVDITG
Protocol: as §1

BIRC8 BIR = target: T4, BIRC8 BIR (Homo sapiens, UniProt Q96P09); assay: NanoBRET cellular target engagement, single domain BIRC8 BIR
T4 sequence (Q96P09 1-90): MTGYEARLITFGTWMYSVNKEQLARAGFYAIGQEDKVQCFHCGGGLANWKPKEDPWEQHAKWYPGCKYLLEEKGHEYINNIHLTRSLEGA

BIRC4 = BIRC4 (Homo sapiens, UniProt P98170); assay: NanoBRET cellular target engagement, full-length BIRC4
BIRC8 = target: T5, BIRC8 (Homo sapiens, UniProt Q96P09); assay: NanoBRET cellular target engagement, full-length BIRC8
T5 sequence (Q96P09 1-236): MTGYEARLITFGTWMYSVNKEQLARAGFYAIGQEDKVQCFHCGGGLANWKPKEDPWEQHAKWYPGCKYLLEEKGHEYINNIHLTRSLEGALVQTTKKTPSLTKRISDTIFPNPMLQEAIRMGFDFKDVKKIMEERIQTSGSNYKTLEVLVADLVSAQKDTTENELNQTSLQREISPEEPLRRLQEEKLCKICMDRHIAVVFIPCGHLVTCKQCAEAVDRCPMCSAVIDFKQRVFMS
Protocol: as §1

BIRC2-BIR3 domain [1] = target: T6, BIRC2-BIR3 domain (Homo sapiens, UniProt Q13490); assay: Differential scanning fluorimetry (DSF); conditions: for Mean, ΔTm [°C] (Supplementary Table S1): mean of n=3, difference to DMSO control; for ΔTm [°C] (Supplementary Table S1): technical replicate
Protocol: Purified proteins were buffered in DSF buffer (25 mM HEPES pH 7.5, 500 mM NaCl) and were assayed in a 384-well plate (Thermo, #BC3384) with a final protein concentration of 20 μM in 10 μL final assay volume. Inhibitors were added in excess to a final concentration of 40 μM, using an ECHO 550 acoustic dispenser (Labcyte). As a fluorescent probe, SYPRO-Orange (Molecular Probes) was used at 5x final concentration. […] Data was analyzed using Boltzmann-equation in the Protein Thermal Shift software (Applied Biosystems). Samples were measured in technical triplicates.
The assay was run in the presence of DMSO to exclude DMSO influences towards melting temperature differences when testing small molecules (Figures 2C,D).

BIRC2 = BIRC2 (Homo sapiens, UniProt Q13490); assay: NanoBRET cellular target engagement, full-length BIRC2; conditions: read-out: EC50 ± SEM NanoBRET BIRC2; full-length, HEK293T, n = 4
Protocol: as §1

BIRC2-BIR3 domain [2] = target: T6, BIRC2-BIR3 domain; design: BIRC2-BIR3 domain (260–352) was expressed; His6 (N, cleaved yes); GST (N, cleaved yes); made in house; host or cells: E. coli; conditions: ref Lu et al. (2008); read-out: Literature FP Assay K I Values; cited from earlier work
BIRC2-BIR3 domain [3] = target: T6, BIRC2-BIR3 domain; assay: Fluorescence polarization (FP) competition assay with fluorescent SMAC probe; type: binding; design: BIRC2-BIR3 domain (260–352) was expressed; His6 (N, cleaved yes); GST (N, cleaved yes); made in house; host or cells: E. coli; conditions: BIRC2 BIR3 domain, Cheng-Prusoff from IC50, mean ± SD, n = 3
Protocol: Resulting data was plotted using GraphPad Prism 9.3 software and analyzed using a nonlinear fit to calculate the probe IC50. […] Compounds were titrated from 20 μM to 20 nM using an ECHO 550 acoustic dispenser (Labcyte) incubated for 1 h at room temperature and subsequent read out.
The assay is based on the displacement of a fluorescent SMAC mimetic from the binding site.

BIRC2 BIR2 = BIRC2 BIR2 (Homo sapiens, UniProt Q13490); assay: NanoBRET cellular target engagement, single domain BIRC2 BIR2; conditions: read-out: EC50 ± SEM NanoBRET BIRC2 BIR2; single domain, HEK293T, n = 4
BIRC2-BIR3 domain [4] = target: T6, BIRC2-BIR3 domain; assay: Isothermal titration calorimetry (ITC); type: binding; design: BIRC2-BIR3 domain (260–352) was expressed; His6 (N, cleaved yes); GST (N, cleaved yes); made in house; host or cells: E. coli; conditions: 25°C, duplicates, mean ± SD
Protocol: For this protocol, the chamber was pre-equilibrated with the test compound, and the BIRC2-BIR3 domain was titrated in while continuously measuring the rate of exothermic heat evolution. The heat of binding was integrated, corrected, and fitted to an independent single-binding site model based on the manufacturer’s instructions, from which thermodynamic parameters (ΔH and TΔS), equilibrium association and dissociation constants (K A and K D, respectively), and stoichiometry (n) were calculated.

BIRC2 BIR3 = BIRC2 BIR3 (Homo sapiens, UniProt Q13490); assay: NanoBRET cellular target engagement, single domain BIRC2 BIR3; conditions: read-out: EC50 ± SEM NanoBRET BIRC2 BIR3; single domain, HEK293T, n = 4
BIRC3 = BIRC3 (Homo sapiens, UniProt Q13489); assay: NanoBRET cellular target engagement, full-length BIRC3; conditions: read-out: EC50 ± SEM NanoBRET BIRC3; full-length, HEK293T, n = 4
Protocol: as §1

BIRC3 BIR2 = BIRC3 BIR2 (Homo sapiens, UniProt Q13489); assay: NanoBRET cellular target engagement, single domain BIRC3 BIR2; conditions: read-out: EC50 ± SEM NanoBRET BIRC3 BIR2; single domain, HEK293T, n = 4
Protocol: as §1

BIRC3 BIR3 = BIRC3 BIR3 (Homo sapiens, UniProt Q13489); assay: NanoBRET cellular target engagement, single domain BIRC3 BIR3; conditions: read-out: EC50 ± SEM NanoBRET BIRC3 BIR3; single domain, HEK293T, n = 4
Protocol: as §1

[5] = read-out: EC50 ± SEM NanoBRET BIRC7 BIR, single domain, HEK293T, n = 4
[6] = read-out: EC50 ± SEM NanoBRET BIRC7, full-length, HEK293T, n = 4
[7] = read-out: EC50 ± SEM NanoBRET BIRC1 BIR[2], single domain, HEK293T, n = 4
[8] = read-out: EC50 ± SEM NanoBRET BIRC8 BIR, single domain, HEK293T, n = 4
[9] = read-out: EC50 ± SEM NanoBRET BIRC8, full-length, HEK293T, n = 4

T6 sequence (Q13490 260-352): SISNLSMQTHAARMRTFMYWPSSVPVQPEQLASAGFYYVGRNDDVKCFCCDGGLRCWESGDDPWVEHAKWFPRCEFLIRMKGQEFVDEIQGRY
Sequence of BIRC4 (P98170 whole entry): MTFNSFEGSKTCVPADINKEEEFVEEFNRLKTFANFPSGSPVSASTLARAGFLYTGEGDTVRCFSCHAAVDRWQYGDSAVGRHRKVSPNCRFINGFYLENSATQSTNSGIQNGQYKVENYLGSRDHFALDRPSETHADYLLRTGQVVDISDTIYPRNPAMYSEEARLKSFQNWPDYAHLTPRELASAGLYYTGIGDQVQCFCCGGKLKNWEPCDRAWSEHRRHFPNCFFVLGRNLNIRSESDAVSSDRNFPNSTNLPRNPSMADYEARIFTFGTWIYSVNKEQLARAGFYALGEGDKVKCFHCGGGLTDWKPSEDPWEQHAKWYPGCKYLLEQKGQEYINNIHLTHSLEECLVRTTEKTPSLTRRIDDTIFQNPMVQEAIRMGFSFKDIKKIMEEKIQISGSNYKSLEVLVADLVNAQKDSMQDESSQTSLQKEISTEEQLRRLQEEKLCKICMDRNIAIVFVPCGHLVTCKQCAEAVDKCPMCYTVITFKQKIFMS
Sequence of BIRC2 (Q13490 whole entry, the tested form may be a part): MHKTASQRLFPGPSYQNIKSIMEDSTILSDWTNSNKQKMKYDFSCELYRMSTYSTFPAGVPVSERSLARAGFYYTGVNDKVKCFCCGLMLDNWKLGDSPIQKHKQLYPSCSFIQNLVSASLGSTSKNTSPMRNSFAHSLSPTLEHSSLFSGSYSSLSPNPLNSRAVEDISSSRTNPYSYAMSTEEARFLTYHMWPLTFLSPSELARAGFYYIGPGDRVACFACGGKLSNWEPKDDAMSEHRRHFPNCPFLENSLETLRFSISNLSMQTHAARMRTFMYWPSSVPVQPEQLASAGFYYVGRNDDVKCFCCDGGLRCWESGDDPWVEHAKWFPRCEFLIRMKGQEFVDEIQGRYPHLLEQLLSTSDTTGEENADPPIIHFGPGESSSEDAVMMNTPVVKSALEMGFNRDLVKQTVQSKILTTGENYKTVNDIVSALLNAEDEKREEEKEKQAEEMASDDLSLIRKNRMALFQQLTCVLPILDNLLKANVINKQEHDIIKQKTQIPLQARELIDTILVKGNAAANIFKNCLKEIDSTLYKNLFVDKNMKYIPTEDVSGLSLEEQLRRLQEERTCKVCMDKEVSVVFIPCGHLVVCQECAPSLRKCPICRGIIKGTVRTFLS
Sequence of BIRC2 BIR3 (Q13490 251-372): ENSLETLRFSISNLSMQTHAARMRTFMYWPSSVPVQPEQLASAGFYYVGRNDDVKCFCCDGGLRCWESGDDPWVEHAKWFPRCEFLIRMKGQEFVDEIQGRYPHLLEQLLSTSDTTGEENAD
Sequence of BIRC2 BIR2 (Q13490 165-267): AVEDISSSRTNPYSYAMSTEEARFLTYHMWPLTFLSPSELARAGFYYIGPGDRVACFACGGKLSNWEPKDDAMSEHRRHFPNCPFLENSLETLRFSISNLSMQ
Sequence of BIRC3 BIR3 (Q13489 236-360): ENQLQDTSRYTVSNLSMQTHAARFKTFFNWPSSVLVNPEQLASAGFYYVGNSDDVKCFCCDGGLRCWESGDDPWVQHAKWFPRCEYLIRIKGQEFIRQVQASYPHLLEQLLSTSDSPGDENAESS
Sequence of BIRC3 (Q13489 whole entry, the tested form may be a part): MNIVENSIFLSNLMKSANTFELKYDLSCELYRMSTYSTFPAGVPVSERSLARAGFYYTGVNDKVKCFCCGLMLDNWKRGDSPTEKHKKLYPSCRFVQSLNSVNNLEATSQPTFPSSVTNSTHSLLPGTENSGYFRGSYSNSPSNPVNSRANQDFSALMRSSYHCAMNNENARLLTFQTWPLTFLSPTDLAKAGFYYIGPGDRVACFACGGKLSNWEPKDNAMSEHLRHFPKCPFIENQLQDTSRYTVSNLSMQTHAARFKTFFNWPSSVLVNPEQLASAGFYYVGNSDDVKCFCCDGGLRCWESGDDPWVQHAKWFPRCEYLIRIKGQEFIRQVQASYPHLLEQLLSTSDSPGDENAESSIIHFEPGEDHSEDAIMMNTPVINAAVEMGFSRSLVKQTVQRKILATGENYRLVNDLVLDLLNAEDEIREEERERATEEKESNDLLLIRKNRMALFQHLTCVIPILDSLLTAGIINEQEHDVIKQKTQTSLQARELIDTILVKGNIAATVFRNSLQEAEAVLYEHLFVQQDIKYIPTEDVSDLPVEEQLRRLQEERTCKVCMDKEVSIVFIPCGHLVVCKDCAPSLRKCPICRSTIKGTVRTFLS
Sequence of BIRC3 BIR2 (Q13489 147-253): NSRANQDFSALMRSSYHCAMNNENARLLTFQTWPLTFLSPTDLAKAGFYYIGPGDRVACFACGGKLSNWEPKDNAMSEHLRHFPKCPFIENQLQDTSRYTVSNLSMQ

EC50 (BIRC7 BIR) [nM] | EC50 (BIRC7) [nM] | EC50 (BIRC1 BIR[2]) [nM] | EC50 (BIRC8 BIR) [nM] | EC50 (BIRC8) [nM] | Mean, ΔTm [°C] (Supplementary Table S1) (BIRC2-BIR3 domain [1]) | ΔTm [°C] (Supplementary Table S1) (BIRC2-BIR3 domain [1]; first column) | ΔTm [°C] (Supplementary Table S1) (BIRC2-BIR3 domain [1]; second column) | ΔTm [°C] (Supplementary Table S1) (BIRC2-BIR3 domain [1]; third column) | EC50 (BIRC7 BIR; [5]) [nM] | EC50 (BIRC7; [6]) [nM] | EC50 (BIRC2) [nM] | EC50 (BIRC1 BIR[2]; [7]) [nM] | EC50 (BIRC8 BIR; [8]) [nM] | EC50 (BIRC2 BIR2) [nM] | EC50 (BIRC8; [9]) [nM] | EC50 (BIRC2 BIR3) [nM] | Compound | other results
28.4 ± 2.7 | 35.5 ± 9.4 | 15200 ± 1230 | 146 ± 3.8 | 134 ± 8.4 |  |  |  |  |  |  |  |  |  |  |  |  | CN[C@@H](C)C(=O)N[C@H](C(=O)N1CCC[C@H]1C(=O)Nc1snnc1-c1ccccc1)C1CCCCC1 [GDC-0152] | EC50 (BIRC4): 15.3 ± 5 nM
28.5 ± 7 | 26.4 ± 5.5 | 1490 ± 297 | 258 ± 42.4 | 199 ± 21.4 |  |  |  |  |  |  |  |  |  |  |  |  | CN[C@@H](C)C(=O)N[C@H](C(=O)N1CCC[C@H]1c1nc(C(=O)c2ccc(F)cc2)cs1)C1CCCCC1 [LCL161] | 
 |  |  |  |  | 13.4 | 13.6 | 13.4 | 13.1 | 50.9 ± 44.4 | 16.5 ± 6 | 5.8 ± 0.6 | 941 ± 258 | 87.3 ± 9.4 | 6610 ± 5280 | 85.7 ± 4.7 | 0.8 ± 0.1 | CN[C@@H](C)C(=O)N[C@H]1CCCC[C@H]2CC[C@@H](C(=O)N[C@@H](c3ccccc3)c3cn(CCCCc4ccc(CCCCn5cc([C@@H](NC(=O)[C@@H]6CC[C@@H]7CCCC[C@H](NC(=O)[C@H](C)NC)C(=O)N76)c6ccccc6)nn5)cc4)nn3)N2C1=O [SM-164] | DSF Assay ΔTm (BIRC2-BIR3 domain [1]; difference in melting temperature to DMSO control, 20 μM protein, 40 μM inhibitor, mean ± SD, n = 3): 13.4 ± 0.2 °C; Ki (BIRC2-BIR3 domain [2]): 0.3 ± 0.1 nM; Ki (BIRC2-BIR3 domain [3]; read-out: FP Assay K I Values): 1.8 ± 0.7 nM; Kd (BIRC2-BIR3 domain [4]; read-out: K D Measured in ITC): 41.6 ± 3.4 nM
 |  |  |  |  | 0.3 | 0.4 | 0.3 | 0.2 | > 50000 | > 50000 | > 50000 | > 50000 | > 50000 | > 50000 | > 50000 | > 50000 | Oc1c(CN2CCCC2)cc(COCc2ccccc2)c2cccnc12 [UC-112] | EC50 (BIRC3): > 50000 nM; EC50 (BIRC3 BIR2): > 50000 nM; EC50 (BIRC3 BIR3): > 50000 nM; FP Assay K I Values (BIRC2-BIR3 domain [3]): binding could not be shown; also recorded: no interaction at all; EC50 (BIRC4; read-out: EC50 ± SEM NanoBRET BIRC4, full-length, HEK293T, n = 4): > 50000 nM; K D Measured in ITC (BIRC2-BIR3 domain [4]): no binding
